Tests used:
[1] = test system: STAT-5 Y694 phosphorylation in NK cells; test: IL-15-induced p-STAT-5 in NK cells; type: cell-based, mouse; settings: 0.1 or 1 (µM in figure, µg/ml in legend)
Procedure: proliferation in vitro. a-b) NK cells from C57BL/6 male mice (n=3 per group) were expanded […]
µg/ml) or vehicle (1% v/v DMSO) in the absence of IL-15. a) NK cells were re-stimulated for 15 min with the indicated amounts of IL-15 and Y694 phosphorylated STAT-5 (p-STAT-5) mean fluorescence intensities (MFIs) determined by flow cytometry. b) Alternatively, NK cells were stained with carboxyfluorescein succinimidyl ester (CFSE, Invitrogen) and then re-stimulated with the indicated amounts of IL-15 for 96 h and NK cell proliferation (CFSE dilution) monitored by flow cytometry. c-d) NK cells from C57BL/6 male mice (n=3 per group) were expanded ex vivo in the presence of IL-15 and then pre-treated with CMP-182 (0.1 or 1 µg/ml) or vehicle in the absence of IL-15. NK cells were re-stimulated with either IL-12 (10 ng/ml) or IL-18 (100 ng/ml) or with α-NK1.1 or α-Ly49H for 4 h. NK cells were maintained in 10 ng/ml IL-15 throughout the 4 h incubation time. Percentages of c) IFN-γ+ and d) CD107A+ NK cells were determined by flow cytometry. In (a-d) results shown are means ± SEM and are representative of at least two independent experiments.

PTPN2 = target: T1, PTPN2 (Homo sapiens, UniProt P17706); test: PTP inhibition assay with DiFMUP substrate (IC50); type: biochemical
T1 construct: PTPN2, residues 1-387; made in house; host or cells: E. coli BL21(DE3)
T1 sequence (P17706 1-387 isoform P17706-2): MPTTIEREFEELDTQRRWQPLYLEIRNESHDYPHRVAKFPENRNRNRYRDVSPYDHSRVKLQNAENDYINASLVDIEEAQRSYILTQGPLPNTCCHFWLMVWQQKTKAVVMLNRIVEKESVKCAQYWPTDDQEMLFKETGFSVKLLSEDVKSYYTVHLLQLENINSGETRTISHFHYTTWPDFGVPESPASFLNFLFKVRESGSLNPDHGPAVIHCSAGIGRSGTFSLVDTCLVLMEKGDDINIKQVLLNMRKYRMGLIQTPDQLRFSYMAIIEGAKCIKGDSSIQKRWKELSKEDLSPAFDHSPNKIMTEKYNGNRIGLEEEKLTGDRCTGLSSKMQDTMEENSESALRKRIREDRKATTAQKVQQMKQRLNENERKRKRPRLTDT
Procedure: E. coli BL21(DE3) (Novagen) was used as an expression host and the induction of protein expression was carried out in LB media with 1 mM IPTG at 18 °C overnight. Cell pellets were stored at −80 °C for subsequent protein purification.
Protein purification of PTPs for enzymatic assays was conducted at 4 °C. Frozen cell pellets were lysed by sonication in 40 ml cold lysis buffer (50 mM Tris-HCl, pH 8.0, 150 mM NaCl, 5 mM imidazole, and 1 mM PMSF) per litre cell pellet. Cell lysates were clarified by centrifugation using a Beckman JA-18 rotor for 15 min at 5308 x g. The supernatant was incubated with HisPur Ni-NTA resin (Thermo Scientific) for 2 h and then packed onto a column and washed with 50 resin volume of buffer A (50 mM Tris-HCl, pH 8.0, 500 mM NaCl, 5 mM imidazole). The His-tagged proteins were eluted with Buffer B (50 mM Tris-HCl, pH=8.0, 500 mM NaCl, 300 mM imidazole,). Pooled His-protein-containing fractions were concentrated, loaded onto a HiLoad 26/600 Superdex 75 column (GE Healthcare Biosciences) and eluted with storage buffer (50 mM Tris-HCl, pH 8.0, 150 mM NaCl, 1 mM DTT, 10% glycerol). […] The protein was aliquoted and stored at −80 °C.
The PTP kinetic assay was modified from previous reported protocols[73],[74]. […] The fluorescence signal was measured using a CLARIOstar Plus Microplate Spectrophotometer (BMG Labtech) using excitation and emission wavelengths of 340 nm and 450 nm, respectively. […]
To determine the mode of inhibition, the reactions were initiated by the addition of enzyme (final concentration for PTP1B and PTPN2 was 0.05 nM) to the reaction mixtures (0.2 ml) containing various concentrations of DiFMUP with different concentrations of the inhibitor. […] The fluorescence signal was measured using a CLARIOstar Plus Microplate Spectrophotometer (BMG Labtech) using excitation and emission wavelength of 340 nm and 450 nm, respectively. […]

CC(C)(O)CCOc1ccc2cc(O)c(N3CC(=O)NS3(=O)=O)c(F)c2c1 [Compound 182, 5-(1-Fluoro-3-hydroxy-7-(3-hydroxy-3-methylbutoxy)naphthalen-2-yl)−1,2,5-thiadiazolidin-3-one 1,1-dioxide]
IL-15-induced p-STAT-5 in NK cells [1]: did not enhance | IC50 (PTPN2; DiFMUP 10 μM as substrate): 0.58 ± 0.02 nM | IC50 (PTPN2; TC-PTP, DiFMUP 10 μM, pH 7.0, 25 °C): 0.58 ± 0.02 nM

— paper PMC10374545, “A small molecule inhibitor of PTP1B and PTPN2 enhances T cell anti-tumor immunity” (Nature Communications, 2023)
